Measured values as given in US11795177B2, “Substituted quinoline analogs as aldehyde dehydrogenase 1A1 (ALDH1A1) inhibitors” (THE UNITED STATES OF AMERICA, AS REPRESENTED BY THE …, priority 2017, dated 2023).

system: MIA PaCa-2 cells; experiment: MIA PaCa2 cell-based assay (1,536-well high-content imaging ALDEFLUOR assay); parameters: species or system human; conditions: Homo sapiens, 0.5 h, ALDEFLUOR BAAA substrate 500 nM, 30 minutes
Description: Example 359. MIA PaCa2 Cell-Based Assay (In Vitro Assay)
1,536-Well High-Content Imaging ALDEFLUOR Assay
The ALDEFLUOR™ kit was purchased from […] Technologies (Vancouver, Canada; #01700). MIA PaCa-2 cells (5 μL; 1,000 cells/well) were dispensed into black, optical quality (cyclic olefin copolymer) clear bottom, medium binding TC treated 1,536-well plates (Aurora Microplates, Whitefish Mont.) using a Multidrop Combi dispenser (ThermoFisher) and incubated overnight (37° C., 5% CO2, 85% RH). Media (RPMI 1640 (Life Technologies, Carlsbad, Calif.), supplemented with 2 mM L-Glutamine (Life Technologies), 10% HyClone™ fetal bovine serum (FBS, GE Healthcare, Piscataway, N.J.) and 100 U/mL penicillin and 100 μg/mL streptomycin (Life Technologies)) was subsequently removed by centrifuging plates upside down using a plate adaptor to collect media. A solution of BAAA substrate ([…] Technologies) and Hoechst 33342 (ThermoFisher, final concentrations of 500 nM and 0.5 nM, respectively) in ALDEFLUOR™ buffer ([…] Technologies #01700) was dispensed onto cells using a Multidrop Combi followed by immediate transfer (23 nL) of compound or control solutions using a Wako Pin-tool (final percentage of DMSO in the cell plates was 0.5%). Unless otherwise noted, all compounds were assayed as 16-point dilutions spanning a final concentration range of 1.4 nM to 47.8 μM. The neutral and positive assay controls were DMSO and DEAB (4.6 μM), respectively. Cells were incubated for 30 minutes or the indicated amount of time at 37° C., 5% CO2, 85% RH to allow the conversion of BAAA into BAA. Supernatant was subsequently removed by centrifugation as described above, then ALDEFLUOR™ buffer (3 μl) was dispensed by Multidrop Combi before imaging on an IN Cell 2200 (GE Healthcare).
The above assay was modified for an online robotic screening system. After cell plating and overnight incubation, 4 μL of media were removed using a 64-tip metal aspirator head on a Wako aspirator station, leaving 1 μL remaining in the well, followed by a 4 μL dispense of BAAA and Hoechst 33342 in ALDEFLUOR™ buffer, for a final concentration of 500 nM and 0.5 nM, respectively Immediately following the dispense, 23 nL of compound or control solutions were transferred using a Wako Pin-tool. Cells were incubated for 30 minutes at 37° C., 5% CO2, 85% RH, followed by a 4 μL media removal using the Wako aspirator, and a subsequent 3 μL addition of ALDEFLUOR™ buffer. Plates were then immediately read on the IN Cell 2200 as described below.
Image Acquisition and Analysis
For images captured on the IN Cell 2200 widefield automated microscope, a 10×0.45 NA Plan Apo objective lens was used to capture the entire well of the 1,536-well plate using standard DAPI (390/18×, 432/48 m) and FITC (475/28×, 525/48 m) filter sets at 50 msec and 100 msec exposures, respectively. Images were subsequently analyzed using IN Cell Investigator v1.6.2 analysis software's canned Multi-Target Analysis algorithm (GE Healthcare). Hoechst stained nuclei were identified using top hat segmentation with a minimum area of 75 μm^2 and sensitivity of 93. BAA-retaining cells captured via FITC channel, were identified using multiscale top hat segmentation with a minimum area of 100 μm^2 and a sensitivity setting of 16. […] Data were plotted using GraphPad Prism software (GraphPad, San Diego, Calif.).

Compound	IC50 [nM]
Cc1cc(F)cc2c(N3CCC4(CC3)OCCO4)c(C(=O)N3CCN(C(=O)C4CC4)CC3)cnc12 [Example 73, (4-(cyclopropanecarbonyl)piperazin-1-yl)(6-fluoro-8-methyl-4-(1,4-dioxa-8-azaspiro[4.5]decan-8-yl)quinolin-3-yl)methanone]	1000 to 10000
O=C(c1cnc2ccc(F)cc2c1N1CCC2(CCCCC2)CC1)N1CCN(C(=O)C2CC2)CC1 [Example 75, (4-(cyclopropanecarbonyl)piperazin-1-yl)(6-fluoro-4-(3-azaspiro[5.5]undecan-3-yl)quinolin-3-yl)methanone]	1000 to 10000
CC1(C)CC=C(c2c(C(=O)N3CCN(S(C)(=O)=O)CC3)cnc3ccc(F)cc23)CC1 [Example 301, (4-(4,4-dimethylcyclohex-1-en-1-yl)-6-fluoroquinolin-3-yl)(4-(methylsulfonyl)piperazin-1-yl)methanone]	< 500
CN(C)S(=O)(=O)N1CCN(C(=O)c2cnc3ccc(F)cc3c2N2CCC(C)(C#N)CC2)CC1 [Example 157, 4-(4-(4-cyano-4-methylpiperidin-1-yl)-6-fluoroquinoline-3-carbonyl)-N,N-dimethylpiperazine-1-sulfonamide]	< 500
CC1(C#N)CCN(c2c(C(=O)N3CCN(C(=O)C4CC4)CC3)cnc3sccc23)CC1 [Example 219, 1-(5-(4-(cyclopropanecarbonyl)piperazine-1-carbonyl)thieno[2,3-b]pyridin-4-yl)-4-methylpiperidine-4-carbonitrile]	1000 to 10000
Cc1ccc2ncc(C(=O)N3CCN(C(=O)C4CC4)CC3)c(N3CCC4(CC3)OCCO4)c2c1 [Example 30, (4-(cyclopropanecarbonyl)piperazin-1-yl)(6-methyl-4-(1,4-dioxa-8-azaspiro[4.5]decan-8-yl)quinolin-3-yl)methanone]	1000 to 10000
O=C(c1cnc2ccc(F)cc2c1N1CCC2(CCCCC2)C1)N1CCN(C(=O)C2CC2)CC1 [Example 79, (4-(cyclopropanecarbonyl)piperazin-1-yl)(6-fluoro-4-(2-azaspiro[4.5]decan-2-yl)quinolin-3-yl)methanone]	> 10000
CS(=O)(=O)N1CCN(C(=O)c2cnc3ccc(F)cc3c2N2CCC(C#N)(c3ccccc3)CC2)CC1 [Example 209, 1-(6-fluoro-3-(4-(methylsulfonyl)piperazine-1-carbonyl)quinolin-4-yl)-4-phenylpiperidine-4-carbonitrile]	< 500
CS(=O)(=O)N1CCN(C(=O)c2cnc3c(F)cc(F)cc3c2N2CCC(C#N)(c3ccccc3)CC2)CC1 [Cpd. 320, 1-(6,8-difluoro-3-(4-(methylsulfonyl)piperazine-1-carbonyl)quinolin-4-yl)-4-phenylpiperidine-4-carbonitrile]	< 500
COc1ccc2ncc(C(=O)N3CCN(S(C)(=O)=O)CC3)c(-c3ccc(C4(C#N)CC4)cc3)c2c1 [Cpd. 321, 1-(4-(6-methoxy-3-(4-(methylsulfonyl)piperazine-1-carbonyl)quinolin-4-yl)phenyl)cyclopropane-1-carbonitrile]	< 500
N#CC1(c2ccc(-c3c(C(=O)N4CCN(C(=O)C5CC5)CC4)cnc4ccc(F)cc34)cc2)CC1 [Example 262, 1-(4-(3-(4-(cyclopropanecarbonyl)piperazine-1-carbonyl)-6-fluoroquinolin-4-yl)phenyl)cyclopropanecarbonitrile]	< 500
CS(=O)(=O)N1CCN(C(=O)c2cnc3ccc(F)cc3c2-c2ccc(C3(C#N)CC3)cc2F)CC1 [Cpd. 315, 1-(3-fluoro-4-(6-fluoro-3-(4-(methylsulfonyl)piperazine-1-carbonyl)quinolin-4-yl)phenyl)cyclopropanecarbonitrile]	< 500
CC1(C#N)CCN(c2c(C(=O)N3CCN(S(=O)(=O)C4CC4)CC3)cnc3ccc(F)cc23)CC1 [Example 85, 1-(3-(4-(cyclopropylsulfonyl)piperazine-1-carbonyl)-6-fluoroquinolin-4-yl)-4-methylpiperidine-4-carbonitrile]	> 10000
CS(=O)(=O)N1CCN(c2c(C(=O)N3CCN(C(=O)C4CC4)CC3)cnc3ccc(F)cc23)CC1 [Cpd. 303, (4-(cyclopropanecarbonyl)piperazin-1-yl)(6-fluoro-4-(4-(methylsulfonyl)piperazin-1-yl)quinolin-3-yl)methanone]	1000 to 10000
CC1(C#N)CCN(c2c(C(=O)N3CCN(C(=O)C4CC4)CC3)cnc3ccc(F)cc23)CC1 [Example 64, 1-(3-(4-(cyclopropanecarbonyl)piperazine-1-carbonyl)-6-fluoroquinolin-4-yl)-4-methylpiperidine-4-carbonitrile]	1000 to 10000
COc1ccc2ncc(C(=O)N3CCN(S(C)(=O)=O)CC3)c(N3CCC(C#N)(c4ccccc4)CC3)c2c1 [Cpd. 317, 1-(6-methoxy-3-(4-(methylsulfonyl)piperazine-1-carbonyl)quinolin-4-yl)-4-phenylpiperidine-4-carbonitrile]	< 500
CC1(C#N)CCN(c2c(C(=O)N3CCN(S(C)(=O)=O)CC3)cnc3ccsc23)CC1 [Example 234, 4-methyl-1-(6-(4-(methylsulfonyl)piperazine-1-carbonyl)thieno[3,2-b]pyridin-7-yl)piperidine-4-carbonitrile]	1000 to 10000
O=C(c1cnc2ccc(F)cc2c1N1C[C@H]2CCCC[C@H]2C1)N1CCN(C(=O)C2CC2)CC1 [Example 83, (4-(cyclopropanecarbonyl)piperazin-1-yl)(6-fluoro-4-((3aR*,7aS*)-hexahydro-1H-isoindol-2(3H)-yl)quinolin-3-yl)methanone]	> 10000
CS(=O)(=O)N1CCN(C(=O)c2cnc3ccc(F)cc3c2N2CCC(C#N)(Cc3ccccc3)CC2)CC1 [Example 245, 4-benzyl-1-(6-fluoro-3-(4-(methylsulfonyl)piperazine-1-carbonyl)quinolin-4-yl)piperidine-4-carbonitrile]	1000 to 10000
CC1(C)CCN(c2c(C(=O)N3CCN(C(=O)C4CC4)CC3)cnc3ccc(F)cc23)CC1 [Example 65, (4-(cyclopropanecarbonyl)piperazin-1-yl)(4-(4,4-dimethylpiperidin-1-yl)-6-fluoroquinolin-3-yl)methanone]	1000 to 10000
CS(=O)(=O)N1CCN(C(=O)c2cnc3ccc(Cl)cc3c2N2CCC(C#N)(c3ccccc3)CC2)CC1 [Cpd. 316, 1-(6-chloro-3-(4-(methylsulfonyl)piperazine-1-carbonyl)quinolin-4-yl)-4-phenylpiperidine-4-carbonitrile]	< 500
CC(=O)C1(c2ccccc2)CCN(c2c(C(=O)N3CCN(S(C)(=O)=O)CC3)cnc3ccc(F)cc23)CC1 [Example 216, 1-(1-(6-fluoro-3-(4-(methylsulfonyl)piperazine-1-carbonyl)quinolin-4-yl)-4-phenylpiperidin-4-yl)ethanone]	< 500
O=C(c1cnc2ccccc2c1N1CCC2(CC1)OCCO2)N1CCN(C(=O)C2CC2)CC1 [Example 42, (4-(1,4-dioxa-8-azaspiro[4.5]decan-8-yl)quinolin-3-yl)(4-(cyclopropanecarbonyl)piperazin-1-yl)methanone]	> 10000
CC1(C#N)CCN(c2c(C(=O)N3CCN(S(C)(=O)=O)CC3)cnc3[nH]ccc23)CC1 [Example 236, 4-methyl-1-(5-(4-(methylsulfonyl)piperazine-1-carbonyl)-1H-pyrrolo[2,3-b]pyridin-4-yl)piperidine-4-carbonitrile]	1000 to 10000
CN(C)C(=O)N1CCN(C(=O)c2cnc3ccc(F)cc3c2-c2ccc(C3(C#N)CC3)cc2)CC1 [Example 265, 4-(4-(4-(1-cyanocyclopropyl)phenyl)-6-fluoroquinoline-3-carbonyl)-N,N-dimethylpiperazine-1-carboxamide]	< 500
CC(C)(C#N)c1ccc(-c2c(C(=O)N3CCN(S(C)(=O)=O)CC3)cnc3ccc(F)cc23)cc1 [Example 211, 2-(4-(6-fluoro-3-(4-(methylsulfonyl)piperazine-1-carbonyl)quinolin-4-yl)phenyl)-2-methylpropanenitrile]	< 500
